Consider 7 compounds from PubChem BioAssay (NCI).

Test systems include U251 CNS; RPMI-8226 leukemia; OVCAR-5 ovarian; SK-OV-3 ovarian; CCRF-CEM leukemia; NCI/ADR-RES ovarian; NCI-H460 lung; M14 melanoma; SF-295 CNS; DU-145 prostate.
Assay in all cases: NCI anticancer screen, dose series, 48 h

Molecules are shown by their SMILES.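 Each compound was tested at five concentrations against cells in 96-well plates for 48 hours. TGI: concentration producing complete growth inhibition.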

Regarding `OC1(c2ccc(Cl)cc2)c2ccc(CN3CCCC3)cc2C2=NCCN21` (stereo not given), the TGI in the assay on U251 CNS was 27.2 µM; in the assay with RPMI-8226 leukemia, 26 µM; in the assay with OVCAR-5 ovarian it was 31.9 µM; with SK-OV-3 ovarian, 27.3 µM; in the assay with CCRF-CEM leukemia it was 30.7 µM; in the assay with NCI/ADR-RES ovarian, > 100 µM. The TGI came out at 29.1 µM in the assay on NCI-H460 lung, 12.8 µM with M14 melanoma, 29.5 µM with SF-295 CNS and 32.2 µM in the assay on DU-145 prostate.
As for `CC/C(Cl)=N\OC(=O)Nc1ccc(F)c([N+](=O)[O-])c1`, the TGI is 46.3 µM in the assay with U251 CNS; > 25.3 µM with RPMI-8226 leukemia; 44.9 µM with OVCAR-5 ovarian; 34.5 µM in the assay with SK-OV-3 ovarian; > 20 µM in the assay with CCRF-CEM leukemia; 75.8 µM in the assay on NCI/ADR-RES ovarian. Moreover, the TGI with NCI-H460 lung was > 100 µM; in the assay with M14 melanoma, > 53.6 µM; with SF-295 CNS, 41.6 µM; in the assay on DU-145 prostate, 36.9 µM.
On to `Cc1cn2c(C)csc2c1P(=O)(OC(C)C)OC(C)C`, for which the TGI in the assay on U251 CNS, in the assay on RPMI-8226 leukemia, in the assay on OVCAR-5 ovarian, in the assay on SK-OV-3 ovarian, in the assay on CCRF-CEM leukemia and with NCI/ADR-RES ovarian was > 100 µM throughout. For the same compound, the TGI in the assay with NCI-H460 lung, in the assay with M14 melanoma, in the assay with SF-295 CNS and in the assay with DU-145 prostate was > 100 µM throughout.
`Cn1ccnc1Sc1ccc(C=Nc2ccc3nc(SCC(=O)NC4CCCCC4)sc3c2)cc1[N+](=O)[O-]`: the TGI in the assay on U251 CNS was 33.9 µM; with RPMI-8226 leukemia it was > 100 µM; in the assay on OVCAR-5 ovarian it was > 100 µM; with SK-OV-3 ovarian it was 58.4 µM; with CCRF-CEM leukemia, > 100 µM; with NCI/ADR-RES ovarian, > 100 µM. Moreover, the TGI in the assay on NCI-H460 lung was > 100 µM; with M14 melanoma, > 100 µM; with SF-295 CNS it was 44.4 µM; in the assay on DU-145 prostate it was > 100 µM.
On to `O=C(CCc1cccc(O)c1)NCCCNC(=O)CCc1cccc(O)c1`, for which the TGI in the assay with U251 CNS, in the assay with RPMI-8226 leukemia, in the assay with OVCAR-5 ovarian, with SK-OV-3 ovarian, in the assay on CCRF-CEM leukemia and in the assay on NCI/ADR-RES ovarian was > 100 µM in each case. Besides, the TGI in the assay on NCI-H460 lung, with M14 melanoma, with SF-295 CNS and in the assay on DU-145 prostate was > 100 µM in each case.
Consider `CC1=C[C@@H](C)C[C@]2(C)CC[C@H](O2)[C@]23CC[C@](C(=O)O)(C[C@H](O2)[C@@H]2O[C@@](C)(CC2=O)[C@@H](O)[C@H]2CC[C@@]4(CCC[C@@H](O4)[C@H](C)C(=O)O[C@H]4C[C@H]([C@]5(O)OCC[C@H](C)[C@@H]5O)O[C@H]4C=C1)O2)O3`, for which the TGI in the assay on U251 CNS, in the assay on RPMI-8226 leukemia, in the assay on OVCAR-5 ovarian, in the assay on SK-OV-3 ovarian, with CCRF-CEM leukemia and with NCI/ADR-RES ovarian was > 10 µM each time. Also, the TGI in the assay with NCI-H460 lung, with M14 melanoma, in the assay on SF-295 CNS and with DU-145 prostate was > 10 µM each time.
With `COc1cc([C@@H]2c3cc4c(cc3[C@@H](c3c(O)cc(O)c5c3O[C@H](c3ccc(O)c(O)c3)[C@@H](O)C5)[C@H]3COC(=O)[C@H]23)OCO4)cc(OC)c1O`, the TGI in the assay on U251 CNS, in the assay with RPMI-8226 leukemia, with OVCAR-5 ovarian, in the assay with SK-OV-3 ovarian, with CCRF-CEM leukemia and in the assay on NCI/ADR-RES ovarian was > 100 µM in each case. The TGI in the assay with NCI-H460 lung, with M14 melanoma, in the assay with SF-295 CNS and in the assay with DU-145 prostate was > 100 µM in each case.
